Laboratory results from US20180344856A1, “COMPOSITIONS AND/OR ARTICLES WITH IMPROVED SOLUBILITY OF A SOLID ACTIVE” (The Procter & Gamble Company, priority 2012, published 2018).

Legend:
[1] = Solvency of solvents for tetrahydrocurcuminoids (THC), visual check for crystals after storage; conditions: solute tetrahydrocurcuminoids (THC), 3% test solution, approximately 1:32 solute to solvent ratio, soluble = no visible crystals
[2] = Solvency of solvents for (S)-Equol, visual check for crystals after storage; assay type: physicochemical; conditions: solute (S)-Equol, 6% test solution, approximately 1:16 solute to solvent ratio, soluble = no visible crystals
Experimental: (§1) In the testing provided below, “soluble” (or “solubilize”), in relation to the solubility of a solid solute being tested, means that no visible crystals may be seen after a prescribed storage period at a storage condition. The storage period can vary. Suitable storage periods include about 24 hours, about 1 week, and about 30 days. Suitable storage conditions include ambient conditions or cold storage at 5° C. (approximately 1 atm). In certain embodiments, solubility may be determined after a 24 hour storage period at ambient conditions. In other embodiments, solubility may be determined after 20 days in cold storage. Other testing parameters may include storage for prolonged time periods (e.g., 30 day, 50 days, 60 days, 90 days) and at variable temperatures (e.g., 5° C., 50° C.).
(§2) The solvency of an isosorbide diester within the scope of the present invention was tested against two conventional, industry standard solvents. […] A test solution was of 6% Equol is prepared with heating to 70° C. Upon reaching 70° C., the examples may be mixed for about 10 minutes. Place mixtures in a covered vial and cool to the storage temperature. Solubility is evaluated for samples stored 24 hours at ambient conditions. Solubility is also evaluated for samples stored for 7 day at 5° C. followed by equilibration to ambient conditions.

[3] = Solvency of solvents for hexylresorcinol, visual check for crystals after storage; assay type: physicochemical; conditions: solute hexylresorcinol, 33.5% test solution, approximately 1:2 solute to solvent ratio, soluble = no visible crystals
Experimental: as §1
as §2, with “solution” for “solution was”, “33.5% hexylresorcinol” for “6% Equol”

[4] = then equilibration to ambient conditions

CCCCCCCCCCCC(=O)N(C)CC(=O)OC(C)C [Isopropyl lauroyl sarcosinate, isopropyl lauroyl sarcosinate]
Soluble: Solubility, 24 hour rest at Ambient Conditions ([1]; heated to 70° C.) | Solubility, 7 day storage at 5° C. [1, 4] | Solubility, 24 hour rest at Ambient Conditions ([2]; heated to 70° C.) | Solubility, 7 day storage at 5° C. [2, 4] | Solubility, 24 hour rest at Ambient Conditions ([3]; heated to 70° C.) | Solubility, 7 day storage at 5° C. [3, 4]
